Laboratory results from ChEMBL document CHEMBL5537159, “Discovery and SAR of JTE-151: A Novel RORγ Inhibitor for Clinical Development” (J Med Chem, 2024).

Assays:
[1] = Apparent permeability in human Caco-2 cells at 25 umol/L incubated for 2 hrs by LC/MS/MS analysis; type: ADME, cell-based; settings: dose 25 µmol/L
[2] = Metabolic stability in human liver microsomes assessed as compound remaining at 5 umol/L measured after 60 mins by UPLC/MS analysis; type: ADME, Microsome; settings: dose 5 µmol/L, read-out: Stability
[3] = target: T1, Nuclear receptor ROR-gamma (Homo sapiens, UniProt P51449); assay: Inhibition of GAL4 DNA-binding domain fused RORgamma (unknown origin) transfected in CHO-K1 cells incubated for 2 days by luciferase assay; type: cell-based
T1 sequence (P51449 whole entry): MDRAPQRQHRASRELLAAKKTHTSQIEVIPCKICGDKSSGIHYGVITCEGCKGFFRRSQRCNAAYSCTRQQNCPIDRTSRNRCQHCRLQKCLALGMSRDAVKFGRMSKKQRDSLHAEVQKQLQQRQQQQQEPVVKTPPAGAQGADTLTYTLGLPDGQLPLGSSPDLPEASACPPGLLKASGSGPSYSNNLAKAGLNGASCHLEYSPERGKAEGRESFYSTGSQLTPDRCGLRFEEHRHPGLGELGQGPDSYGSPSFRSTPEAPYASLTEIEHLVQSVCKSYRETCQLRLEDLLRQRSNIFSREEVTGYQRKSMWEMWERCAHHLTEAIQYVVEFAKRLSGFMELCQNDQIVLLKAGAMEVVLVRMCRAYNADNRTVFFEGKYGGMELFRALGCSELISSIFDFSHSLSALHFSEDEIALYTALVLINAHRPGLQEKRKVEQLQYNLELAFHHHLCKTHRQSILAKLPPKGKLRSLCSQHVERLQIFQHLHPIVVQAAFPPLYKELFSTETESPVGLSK

[4] = Lipophilicity, logD of compound by RP-HPLC analysis; type: physicochemical

SMILES	Papp at 2 h, 25 µM [1]	remaining at 1 h, 5 µM [2]	EC50 [3]	logD [4]
Cc1cc(C)c(C)c(NC(=O)C[C@H](CC(=O)O)c2noc([C@H]3C[C@@H](CC(C)C)C3)c2C2CC2)c1	170 nm/s	64%	0.063 µM	4.5
Cc1ccc(NC(=O)C[C@H](CC(=O)O)c2noc([C@H]3C[C@@H](CC(C)C)C3)c2C(C)C)c(C)c1	233 nm/s	37%	0.66 µM	4.4
Cc1ccc(NC(=O)CC(CC(=O)N(C)C)c2nnc([C@H]3C[C@@H](CC(C)C)C3)n2C2CC2)c(C)c1 (mixture of isomers)	183 nm/s	27%	0.15 µM	4.3
CC(C)C[C@H]1C[C@@H](c2onc([C@@H](CC(=O)O)CC(=O)Nc3ccc(Cl)cc3F)c2C2CC2)C1	299 nm/s	67%	0.097 µM	4.4
Cc1cc(F)ccc1NC(=O)C[C@H](CC(=O)O)c1noc([C@H]2C[C@@H](CC(C)C)C2)c1C1CC1	380 nm/s	82%	0.064 µM	3.9
Cc1ccc(NC(=O)CC(c2nnc([C@H]3C[C@@H](CC(C)C)C3)n2C2CC2)C2CN(C)C2)c(C)c1 (mixture of isomers)	7 nm/s	78%	6.9 µM	3.8
Cc1cccc(NC(=O)C[C@H](CC(=O)O)c2noc([C@H]3C[C@@H](CC(C)C)C3)c2C2CC2)c1C	355 nm/s	67%	–	4.3
Cc1ccc(NC(=O)C[C@H](CCC(=O)O)c2noc([C@H]3C[C@@H](CC(C)C)C3)c2C2CC2)c(C)c1	314 nm/s	61%	–	4.7
CCc1c([C@@H](CC(=O)O)CC(=O)Nc2ccc(C)cc2C)noc1[C@H]1C[C@@H](CC(C)C)C1	379 nm/s	68%	–	4.2
Cc1ccc(C)c(NC(=O)C[C@H](CC(=O)O)c2noc([C@H]3C[C@@H](CC(C)C)C3)c2C2CC2)c1	355 nm/s	76%	0.065 µM	4.2
Cc1ccc(NC(=O)C[C@H](CC(=O)O)c2noc([C@H]3C[C@@H](CC(C)C)C3)c2C2CC2)c(C)c1C	218 nm/s	76%	–	4.4
Cc1ccc(NC(=O)C[C@H](CC(=O)O)c2noc([C@H]3C[C@@H](CCC(C)(C)C)C3)c2C2CC2)c(C)c1	228 nm/s	61%	–	5
Cc1ccc(NC(=O)C[C@H](Cc2nccs2)c2nnc([C@H]3C[C@@H](CC(C)C)C3)n2C2CC2)c(C)c1	294 nm/s	69%	< 0.032 µM	4.6
C=C(C)c1c([C@@H](CC(=O)O)CC(=O)Nc2ccc(C)cc2C)noc1[C@H]1C[C@@H](CC(C)C)C1	276 nm/s	54%	1.2 µM	4.3
Cc1ccc(NC(=O)C[C@H](CC(C)(C)O)c2nnc([C@H]3C[C@@H](CC(C)C)C3)n2C2CC2)c(C)c1.Cl	253 nm/s	0%	0.03 µM	4.4
Cc1ccc(NC(=O)C[C@H](CC(=O)O)c2noc([C@H]3C[C@@H](CC(C)C)C3)c2C2CC2)c(Cl)c1	274 nm/s	67%	0.043 µM	4.4
Cc1ccc(NC(=O)C[C@H](Cc2nc(C(=O)O)cs2)c2noc([C@H]3C[C@@H](CC(C)C)C3)c2C2CC2)c(C)c1	75 nm/s	71%	0.11 µM	4.2
Cc1ccc(NC(=O)C[C@@H](c2noc([C@H]3C[C@@H](CC(C)C)C3)c2C2CC2)C(C)(C)C(=O)O)c(C)c1	276 nm/s	77%	0.26 µM	5
Cc1ccc(NC(=O)C[C@H](CC(=O)O)c2noc([C@H]3C[C@@H](CCC(C)C)C3)c2C2CC2)c(C)c1	215 nm/s	90%	–	4.7
Cc1ccc(NC(=O)C[C@H](CC(=O)O)c2noc([C@H]3C[C@@H](CC(C)C)C3)c2C2CC2)cc1C	324 nm/s	65%	–	4.5
Cc1ccc(NC(=O)C[C@H](OCC(=O)O)c2noc([C@H]3C[C@@H](CC(C)C)C3)c2C2CC2)c(C)c1	249 nm/s	64%	–	3.8
Cc1ccc(NC(=O)CC(Cc2ncco2)c2nnc([C@H]3C[C@@H](CC(C)C)C3)n2C2CC2)c(C)c1 (mixture of isomers)	270 nm/s	75%	< 0.032 µM	4.5

SMILES	Papp at 2 h, 25 µM [1]	remaining at 1 h, 5 µM [2]	EC50 [3]	logD [4]
Cc1ccc(NC(=O)C[C@H](Cc2nnn[nH]2)c2noc([C@H]3C[C@@H](CC(C)C)C3)c2C2CC2)c(C)c1	218 nm/s	0%	0.063 µM	4.1
Cc1cc(C)c(NC(=O)C[C@H](CC(=O)O)c2noc([C@H]3C[C@@H](CC(C)C)C3)c2C2CC2)cc1C	320 nm/s	78%	–	4.6
CC(C)C[C@H]1C[C@@H](c2onc([C@@H](CC(=O)O)CC(=O)Nc3ccc(F)cc3Cl)c2C2CC2)C1	335 nm/s	74%	–	4.3
Cc1ccc(NC(=O)C[C@@H](c2noc([C@H]3C[C@@H](CC(C)C)C3)c2C2CC2)C(C)(C)CC(=O)O)c(C)c1	277 nm/s	53%	–	5.2
Cc1ccc(NC(=O)CC(Cc2nnn[nH]2)c2nnc([C@H]3C[C@@H](CC(C)C)C3)n2C2CC2)c(C)c1 (mixture of isomers)	2 nm/s	91%	6 µM	3.1
Cc1ccc(NC(=O)C[C@H](CC(=O)O)c2noc([C@H]3C[C@@H](CC(C)C)C3)c2C2CC2)c(F)c1	331 nm/s	67%	–	4.2
Cc1ccc(NC(=O)C[C@H](CC(=O)O)c2noc([C@H]3C[C@@H](CC(C)C)C3)c2C2CC2)c(C)c1	406 nm/s	78%	–	4.3
Cc1ccc(NC(=O)C[C@H](CCC(=O)O)C(=O)N(C[C@H]2C[C@@H](CC(C)(C)C)C2)C2CC2)c(Cl)c1 (mixture of isomers)	306 nm/s	73%	–	4.5
Cc1cc(C)cc(NC(=O)C[C@H](CC(=O)O)c2noc([C@H]3C[C@@H](CC(C)C)C3)c2C2CC2)c1	337 nm/s	52%	–	4.5
CC(=O)N1C[C@H](C(=O)Nc2ccc(C)cc2C)[C@@H](c2nnc([C@H]3C[C@@H](CC(C)C)C3)n2C2CC2)C1	198 nm/s	61%	–	–
Cc1ccc(NC(=O)CC(CC(=O)O)c2nnc([C@H]3C[C@@H](CC(C)C)C3)n2C2CC2)c(C)c1 (mixture of isomers)	1 nm/s	103%	3 µM	3.2
Cc1ccc(NC(=O)CC(CCC(=O)O)c2ncnc([C@H]3C[C@@H](CC(C)(C)C)C3)c2C2CC2)c(Cl)c1 (mixture of isomers)	207 nm/s	52%	0.016 µM	–
Cc1ccc(NC(=O)C[C@H](C[C@H]2C[C@@H](C(=O)O)C2)c2noc([C@H]3C[C@@H](CC(C)C)C3)c2C2CC2)c(C)c1	209 nm/s	69%	–	5.1
Cc1ccc(NC(=O)C[C@H](CC(=O)O)c2noc([C@H]3C[C@@H](C(C)(C)C(C)C)C3)c2C2CC2)c(C)c1	236 nm/s	60%	–	4.7
Cc1ccc(NC(=O)C[C@H](c2nnc([C@H]3C[C@@H](CC(C)C)C3)n2C2CC2)[C@H]2C[C@@H](O)C2)c(C)c1	152 nm/s	0%	–	4.1
Cc1ccc(NC(=O)C[C@H](Cc2ccc(C(=O)O)cc2)c2noc([C@H]3C[C@@H](CC(C)C)C3)c2C2CC2)c(C)c1 (mixture of isomers)	143 nm/s	67%	–	4.7
Cc1cccc(C)c1NC(=O)C[C@H](CC(=O)O)c1noc([C@H]2C[C@@H](CC(C)C)C2)c1C1CC1	396 nm/s	85%	–	4.2
CCC(CC)C[C@H]1C[C@@H](c2onc([C@@H](CC(=O)O)CC(=O)Nc3ccc(C)cc3C)c2C2CC2)C1	136 nm/s	88%	–	4.9
CCC(C)(C)C[C@H]1C[C@@H](c2onc([C@@H](CC(=O)O)CC(=O)Nc3ccc(C)cc3C)c2C2CC2)C1	225 nm/s	65%	–	5
Cc1ccc(NC(=O)C[C@H](CCC(=O)O)n2ncc([C@H]3C[C@@H](CC(C)(C)C)C3)c2C2CC2)c(Cl)c1	145 nm/s	42%	–	5
Cc1ccc(NC(=O)CCc2nnc([C@H]3C[C@@H](CC(C)C)C3)n2C2CC2)c(C)c1	–	39%	–	4.4
